Key:
[1] = tested on: IFNγ mRNA; assay: IFNγ mRNA levels by RT-PCR (control) in day 6 T cells stimulated with plate bound α-CD3; format: cell-based, human; settings: 25 µM vitamin E 1 h, then α-CD3 12 h (Fig. 1B)
Protocol: The day 6 T cells were cultured in the absence or presence of 25 µM vitamin E for 1 h and then stimulated for 12 h with plate bound α-CD3. The mRNA was analyzed by RT-PCR using primers specific for CD95L (Eichhorst et al., Mol. Cell. Biol. 20 (2000), 7826) . For controls, primers for IFNγ and β-actin were used. The primers had the following sequences: • CD95L: sense-5'-[…]-3' antisense-5'[…]-3' • IFN-γ: sense-5'[…]-3' antisense-5'[…]-3' • human β-actin: sense-5'[…]-3' antisense-5'[…]-3'
Since activation-induced-cell-death (AICD) is a major cause of T cell depletion in AIDS and since supplementation of vitamin E is shown to increase T cell numbers, it was investigated whether vitamin E could protect from T cell depletion by AICD. To analyze the effect of vitamin E on T cell death, freshly isolated peripheral blood T cells were prestimulated for 6 days (referred to as day 6 cells) and subsequently restimulated via the TCR by plate-bound α-CD3 antibodies. […] CD95 (APO-1/Fas) and its ligand (CD95L) are known to play a major role in AICD of T cells. […] The concentration of vitamin E in plasma from healthy individuals normally ranges from 12-35 µM. Thus, vitamin E at physiological concentrations may attenuate AICD. Indeed, depending on the blood donors, vitamin E reduced AICD by 20-50%. […]

[2] = tested on: CD95L mRNA; assay: CD95L mRNA levels by RT-PCR in peripheral blood lymphocytes of HIV positive individuals; format: cell-based, human; settings: 25 µM vitamin E 1 h, α-CD3 12 h (Fig. 5)
Protocol: Freshly isolated peripheral blood lymphocytes from HIV positive individuals were treated without or with vitamin E (VE) (25 µM) for 1 h and than stimulated with plate bound α-CD3 ([…]) for 12 h. CD95L mRNA levels were examined by RT-PCR (Eichhorst et al., 2000). Results from 5 individuals are shown.
It was investigated whether vitamin E could block CD95L expression in the peripheral blood lymphocytes of HIV positive individuals. Peripheral blood lymphocytes from such individuals were subjected to analysis of the CD95L mRNA expression levels in the absence or the presence of vitamin E. Different levels of the CD95L mRNA expression were found in lymphocytes from different HIV patients examined. […] Experimental details are given in the legend to Figure 5.

[3] = tested on: NF-κB; assay: EMSA, nuclear extracts of J-27 T cells, binding to CD95L promoter NF-κB sites; format: cell-based; settings: J-27 nuclear extracts, PMA/ionomycin 2 h, 50 µM vitamin E added 1 h before induction (Fig. 3A)
Protocol: (A)^32P-labeled oligonucleotides containing the CD95L NF-κB (at the promoter -530 and -50 region) (Li-Weber et al., Eur. J. Immunol. 30 (2000), 661) and AP-1 (at the promoter +90 region) (Eichhorst et al., Mol. Cell. Biol. 20 (2000), 7826) binding sequences were analyzed by EMSA as described (Li-Weber et al., (2000). The EMSA probes had the following sequences: • CD95L NF-κB at-530: 5'-[…]-3' • CD95L NF-κB at-50: 5'-[…]-3' • CD95L AP-1 at +90: 5'-[…]-3'
(§1) Nuclear extracts were prepared from J-27 T cells either non-induced (-) or induced (+) for 2 h by PMA (10 ng/ml) and ionomycin (0.5 µM) in the absence (-) or presence (+) of 50 µM vitamin E (VE) (added 1 h before induction). The inducible complex corresponding to NF-κB and AP-1 were indicated. A NF-Y binding oligonucleotide 5'[…]-3' was used for equal loading of nuclear extracts.
It was investigated whether vitamin E affects NF-KB and AP-1 binding to the CD95L promoter target sites. Nuclear extracts were prepared from J-27 T cells stimulated in the presence or absence of vitamin E. The NF-κB and AP-1 binding sites contained in the CD95L promoter were used as probes in an electrophoretic-mobility-shift-assay (EMSA). Stimulation of T cell with PMA and ionomycin induced binding of nuclear factors to the NF-κB and AP-1 sites of the CD95L promoter (Fig. 3A). […]

[4] = tested on: Egr binding site; assay: Luciferase reporter assay in J-27 T cells, three copies of the Egr consensus binding site (control); format: cell-based; settings: J-27 cells, 50 µM vitamin E 1 h, PMA/ionomycin 8 h, control (Fig. 4)
Description: (§2) J-27 T cells were transiently transfected with the luciferase reporter constructs containing the 0.86-kb CD95L promoter (Li-Weber et al., Eur. J. Immunol. 30 (2000), 661), or three copies of the NF-κB binding sites at -530 or -50 region (Li-Weber et al., Eur. J. Immunol. 30 (2000), 661) or the AP-1 motif at +90 region (Eichhorst et al., Mol. Cell. Biol. 20 (2000), 7826) of the CD95L promoter as described in Li-Weber et al., 2000. All promoter constructs are described in the cited references. A luciferase reporter construct containing three copies of the Egr consensus binding site was used as a control (Li-Weber et al., Eur. J. Immunol. 29 (1999), 3017). After overnight culture, the cells were divided and treated with vitamin E (VE) (50 µM) or the vitamin E solvent ethanol for 1 h and than further cultured in the absence (empty box) or presence (black box) of PMA (10 ng/ml) and ionomycin (0.5 µM). Luciferase activity was determined after 8 h of stimulation. Results represent the average of three to five independent transfection experiments.
(§3) To further investigate the effect of vitamin E on CD95L expression, the CD95L promoter (-860 to +100) or a minimal TATA promoter containing three copies of either the NF-B or the AP1 sites of the CD95L promoter were linked to the luciferase reporter gene and these constructs were transiently transfected into J-27 T cells. […]

[5] = tested on: NF-Y; assay: EMSA control, constitutive transcription factor, NF-Y binding oligonucleotide; format: cell-based; settings: J-27 nuclear extracts, 50 µM vitamin E (Fig. 3A)
Protocol: as §1
It was investigated whether vitamin E affects NF-KB and AP-1 binding to the CD95L promoter target sites. Nuclear extracts were prepared from J-27 T cells stimulated in the presence or absence of vitamin E. The NF-κB and AP-1 binding sites contained in the CD95L promoter were used as probes in an electrophoretic-mobility-shift-assay (EMSA). Stimulation of T cell with PMA and ionomycin induced binding of nuclear factors to the NF-κB and AP-1 sites of the CD95L promoter (Fig. 3A). These inducible binding complexes were either reduced or supershifted in the presence of antibodies against the subunits p50 and p65 of NF-κB or antibodies against the AP-1 family members Jun and Fos (Fig. 3B). […] As a control, the constitutive transcription factor […] was not affected by vitamin E (Fig. 3A). Experimental details are given in the legend to Figure 3.

[6] = tested on: AP-1; assay: Luciferase reporter assay in J-27 T cells, three copies of the CD95L promoter AP-1 motif; format: cell-based; settings: J-27 cells, 50 µM vitamin E 1 h, PMA/ionomycin 8 h (Fig. 4)
Description: as §2, §3

[7] = tested on: CD95L mRNA; assay: CD95L mRNA expression by RT-PCR in J-27 T cells stimulated by PMA and ionomycin; format: cell-based; settings: J-27 cells
Protocol: J-27 T cells were cultured in the absence or presence of 50 µM vitamin E for 1 h and then stimulated by PMA (10 ng/ml) and ionomycin (0.5 µM) for the indicated times. CD95L mRNA expression was analyzed by RT-PCR. Primers for IFNγ and β-actin were used as controls.
(§4) To further investigate the molecular mechanism by which vitamin E attenuates AICD, several Jurkat T cell sub-clones susceptible to T-cell-receptor (TCR)-mediated-activation-induced apoptosis were selected. Data from one of the representative clones, clone 27 (J-27) is presented here. Activation of T cells through the T cell receptor can be mimicked by stimulation with the phorbol ester (PMA) and calcium ionophores (ionomycin). […] Therefore, it is unlikely that vitamin E directly interferes with signals downstream of the CD95 receptor. […] Thus, vitamin E may reduce CD95L expression at the transcriptional level and, therefore, attenuate AICD in J-27 cells. Experimental details are given in the legend to Figure 2.

[8] = tested on: Jurkat J-27 T cells; assay: AICD of Jurkat J-27 T cells, apoptotic nuclei by DNA fragmentation; format: cell-based; settings: J-27 cells, PMA 10 ng/ml and ionomycin 0.5 µM, 24 h (Fig. 2A, B)
Protocol: J-27 T cells were induced either with PMA (10 ng/ml) Sigma (St. Louis, MO, USA) and ionomycin (0.5 µM), Calbiochem (Bad Soden/Ts, Germany) or with plate bound α-CD3 (OKT3, 50 µg/ml) for 24 h in the presence of vitamin E or equal amount of the vitamin E solvent ethanol. Apoptotic nuclei were measured by determination of DNA fragmentation (Dhein et al., Nature 373 (1995), 438).
J-27 cells were stimulated in the absence or presence of CD95-Fc (50 µg/ml) or NOKI (50 µg/ml). BD-Pharmingen (Heidelberg, Germany), for 24 h.
as §4

## Cc1c(C)c2c(c(C)c1O)CC[C@@](C)(CCC[C@H](C)CCC[C@H](C)CCCC(C)C)O2 [vitamin E, α-tocopherol]
[1]
  levels of IFNγ mRNA: did not significantly influence
[2]
  expression of CD95L mRNA: completely blocked in most patients
[3]
  binding of NF-κB to its binding sites of the CD95L promoter (-530 and -50 region): prevented binding
[4]
  luciferase expression driven by the Egr binding site: did not affect
[5]
  NF-Y binding (constitutive loading control): not affected
[6]
  luciferase expression driven by the AP-1 site of the CD95L promoter: greatly reduced
[7]; 50 µM vitamin E 1 h, then PMA/ionomycin (Fig. 2E)
  CD95L mRNA expression: substantially reduced
[7]; 50 µM vitamin E, 3 h post stimulation (Fig. 2E)
  reduction of CD95L mRNA expression: readily seen
[7]; 50 µM vitamin E, 6 h post stimulation (Fig. 2E)
  CD95L mRNA expression: nearly completely blocked
[8]
  PMA/ionomycin-induced cell death: significantly reduced

Reference: patent publication EP1273297A1, “Vitamin E for the treatment of diseases in which the binding of the transcription factor NF-KB and/or AP-1 to promoter target sites has a beneficial effect (eg AIDS, cardiac infarction)” (Deutsches Krebsforschungszentrum Stiftung des öffentlichen …, priority 2001, dated 2003)
